Assays:
Mus musculus = assay: In vivo inhibition of L1210 murine leukemia, expressed as optimal non toxic dose (CD2F1 mice were given an injection of […] i.p. and treated on day 1); type: functional
L1210 = assay: In vitro inhibition of L1210 murine leukemia (Drug sensitivity was determined by counting surviving cells after 48 hr of continuous exposure to at least 4 conc. of drug); type: functional, cell-based; conditions: Mus musculus, L1210, 48 h

Structure (SMILES) | OD (Mus musculus) [mg/kg] | IC50 (L1210) [mg/L]
Cl.Cn1cc(NC(=O)c2cc(NC(=O)c3cc(NC(=O)c4ccc(N(CCCl)CCCl)cc4)cn3C)cn2C)cc1C(=O)NCCC(=N)N [TALLIMUSTINE CHLORIDE] | 3.13 | 
C=C(Br)C(=O)Nc1cc(C(=O)Nc2cc(C(=O)Nc3cc(C(=O)Nc4cc(C(=O)NCCC(=N)N)n(C)c4)n(C)c3)n(C)c2)n(C)n1.Cl | 6.25 | 
Cl.Cn1cc(NC(=O)c2cc(NC(=O)c3cc(NC(=O)c4nc(NC(=O)c5ccc(N(CCCl)CCCl)cc5)cn4C)cn3C)cn2C)cc1C(=O)NCCC(=N)N | 6.25 | 2
Cl.Cn1cc(NC(=O)c2cc(NC(=O)c3cc(NC(=O)c4cc(NC(=O)c5ccc(N(CCCl)CCCl)cc5)nn4C)cn3C)cn2C)cc1C(=O)NCCC(=N)N | 3.13 | 0.0291
C=C(Br)C(=O)Nc1cn(C)c(C(=O)Nc2cc(C(=O)Nc3cc(C(=O)Nc4cc(C(=O)NCCC(=N)N)n(C)c4)n(C)c3)n(C)c2)n1.Cl | 6.25 | 

From ChEMBL document CHEMBL1149967, “Synthesis and antitumor activity of novel distamycin derivatives” (Bioorg Med Chem Lett, 1996)
